Laboratory results: patent US11667674B2, “Antibacterial cyclic lipopeptides” (priority 2016, dated 2023)
Converted amounts (≈) assume the structure as drawn. Like-named read-outs stand apart in the source and are kept apart here.

How the values were obtained:
[1] = test system: Clostridium difficile ATCC43255; test: in vitro anti-Clostridium difficile MIC, standard broth dilution method; type: cell-based
Protocol: (§1) Anti-Clostridium difficile activity of compound 1 was tested on two strains, C. difficile BAA-1382 and […], using the standard broth dilution method as described by the Clinical Laboratory Standard Institute.

[2] = test system: Clostridium difficile ATCCBAA-1382; test: as above; type: cell-based; conditions: for MIC: Clostridium difficile ATCCBAA-1382; for anti-Clostridium difficile activity compared with vancomycin and daptomycin: in words, both strains of Table 3
Protocol: as §1

MRSA ATCC33591 = test: Neutropenic mouse thigh infection model; type: in vivo, S. aureus; parameters: Δ (thigh c.f.u. versus control): unit not given here; conditions: for Thigh colony-forming units (c.f.u): neutropenic ICR mice, thighs at 24 h, X ± SD, n = 5
Protocol: Compound 1 was tested against MRSA ATCC33591 in a neutropenic mouse thigh infection model. Both female and male ICR mice were rendered neutropenic by cyclophosphamide (three consecutive doses of 150 mg per kg delivered before infection). At day 4, bacteria were resuspended in sterile saline, 0.1 ml inoculum (MRSA ATCC33591, 5.0×10^6 c.f.u/ml) was injected into the left thighs of mice. At 2 h post-infection, mice received treatment with Compound 1 at 0.63, 1.25, 2.5, 5.0 mg per kg administered in a single dose (10 ml/kg), intravenous injection (five mice per group). At 24 h post-infection, the left thighs were aseptically removed, weighed, homogenized, serially diluted and plated on trypticase soy agar for c.f.u titres.

MRSA ATCC43300 = test: Right-sided endocarditis rat model; type: in vivo, S. aureus; conditions: for Log10 (CFU/g) of vegetation / Vegetation weight: Sprague-Dawley rats, 1 time/day for 2 days, 3 animals
Protocol: Male Sprague-Dawley rats (280-300 g) were intraperitoneally anesthetized with sodium pentobarbital solution (40 mg/kg). The rat chin area was treated with 75% alcohol. The right carotid artery was exposed through an anterior incision just slight right of midline above the calvicles. Polyethylene tubing was placed over 4-4.5 cm guided wire and passed within the right carotid artery into the left ventricle until resistance was met. Cardiac pulsations of the catheter indicated proper placement of the catheter tip at the apex of the heart. 0.5 ml inoculum of the overnight cultures (ATCC43300m 3.5×10^4 c.f.u./mL) was injected through a tail vein. After 24 hours of infection, the surviving rats were randomly divided into control group and treatment group. Compound 1 and daptomycin was administered via tail vein for 2 days (1 time/day). 24 h after the last administration, the animals were anesthetized and sacrificed. Vegetations and tissue samples were excised, weighed, homogenized, serially diluted and plated on trypticase soy agar for c.f.u titres.

[3] = Clostridium difficile ATCC43255
[4] = 0.63 mg/kg single i.v. dose 2 h post-infection
[5] = 1.25 mg/kg single i.v. dose 2 h post-infection
[6] = 2.50 mg/kg single i.v. dose 2 h post-infection
[7] = 5.00 mg/kg single i.v. dose 2 h post-infection

## CCCCCc1ccc(/C(C)=C/C(=O)N[C@@H](Cc2c[nH]c3ccccc23)C(=O)N[C@H](CC(N)=O)C(=O)N[C@@H](CC(=O)O)C(=O)N[C@@H]2C(=O)NCC(=O)N[C@@H](CCCN)C(=O)N[C@@H](CC(=O)O)C(=O)N[C@H](C)C(=O)N[C@@H](CC(=O)O)C(=O)NCC(=O)N[C@H](CO)C(=O)N[C@@H](C(C)CC(=O)O)C(=O)N[C@@H](CC(=O)c3ccccc3NC)C(=O)O[C@@H]2C)cc1 (some centres unmarked) [Compound 7]
[1]; [3]
  MIC: 0.25 µg/mL (≈ 0.148 µM)
[2]
  MIC: 0.25 µg/mL (≈ 0.148 µM)
  anti-Clostridium difficile activity compared with vancomycin and daptomycin: better activities than vancomycin and daptomycin

## CCCCCCCCCC(=O)N[C@@H](Cc1c[nH]c2ccccc12)C(=O)N[C@H](CC(N)=O)C(=O)N[C@@H](CC(=O)O)C(=O)N[C@@H]1C(=O)NCC(=O)N[C@@H](CCCN)C(=O)N[C@@H](CC(=O)O)C(=O)N[C@H](C)C(=O)N[C@@H](CC(=O)O)C(=O)NCC(=O)N[C@H](CO)C(=O)N[C@@H]([C@H](C)CC(=O)O)C(=O)N[C@@H](CC(=O)c2ccccc2N)C(=O)O[C@@H]1C [daptomycin, reference compound]
MRSA ATCC33591; 0.63 mg/kg
  Δ (thigh c.f.u. versus control): 0.88
MRSA ATCC33591; 1.25 mg/kg
  Δ (thigh c.f.u. versus control): 1.09
MRSA ATCC33591; 2.50 mg/kg
  Δ (thigh c.f.u. versus control): 1.97
MRSA ATCC33591; 5.00 mg/kg
  Δ (thigh c.f.u. versus control): 4.97
MRSA ATCC33591; [4]
  Thigh colony-forming units (c.f.u): 8.02 ± 0.48 log(CFU/thigh)
MRSA ATCC33591; [5]
  Thigh colony-forming units (c.f.u): 7.81 ± 0.37 log(CFU/thigh)
MRSA ATCC33591; [6]
  Thigh colony-forming units (c.f.u): 6.93 ± 0.57 log(CFU/thigh)
MRSA ATCC33591; [7]
  Thigh colony-forming units (c.f.u): 3.93 ± 0.84 log(CFU/thigh)
MRSA ATCC43300; 40 mg/kg
  Δ (Log10 CFU/g of vegetation versus control): 0.73
MRSA ATCC43300; 40 mg/kg via tail vein
  Log10 (CFU/g) of vegetation: 8.58 ± 0.55 Log10 (CFU/g)
  Vegetation weight: 0.007 ± 0.001 g
[1]; [3]
  MIC: 1 µg/mL (≈ 0.617 µM)
[2]
  MIC: 1 µg/mL (≈ 0.617 µM)
MRSA ATCC 33591
  MIC: 1 µg/mL (≈ 0.617 µM)

## CCCCCc1ccc(/C(C)=C/C(=O)N[C@@H](Cc2c[nH]c3ccccc23)C(=O)N[C@H](CC(N)=O)C(=O)N[C@@H](CC(=O)O)C(=O)N[C@@H]2C(=O)NCC(=O)N[C@@H](CCCN)C(=O)N[C@@H](CC(=O)O)C(=O)N[C@H](C)C(=O)N[C@@H](CC(=O)O)C(=O)NCC(=O)N[C@H](CO)C(=O)N[C@@H]([C@H](C)CC(=O)O)C(=O)N[C@@H](CC(=O)c3ccccc3N)C(=O)O[C@@H]2C)cc1 [surotomycin, reference compound]
[1]; [3]
  MIC: 0.5 µg/mL (≈ 0.297 µM)
[2]
  MIC: 0.5 µg/mL (≈ 0.297 µM)

## CN[C@H](CC(C)C)C(=O)N[C@H]1C(=O)N[C@@H](CC(N)=O)C(=O)N[C@H]2C(=O)N[C@H]3C(=O)N[C@H](C(=O)N[C@H](C(=O)O)c4cc(O)cc(O)c4-c4cc3ccc4O)[C@H](O)c3ccc(c(Cl)c3)Oc3cc2cc(c3O[C@@H]2O[C@H](CO)[C@@H](O)[C@H](O)[C@H]2O[C@H]2C[C@](C)(N)[C@H](O)[C@H](C)O2)Oc2ccc(cc2Cl)[C@H]1O [vancomycin, reference compound]
[1]; Clostridioides difficile, ATCC43255
  MIC: 1 µg/mL (≈ 0.69 µM)
[2]; Clostridioides difficile, ATCCBAA1382, read-out: MIC
  MIC: 1 µg/mL (≈ 0.69 µM)

## CCCCCCCCCC(=O)N[C@@H](Cc1c[nH]c2ccccc12)C(=O)N[C@H](CC(N)=O)C(=O)N[C@@H](CC(=O)O)C(=O)N[C@@H]1C(=O)NCC(=O)N[C@@H](CCCN)C(=O)N[C@@H](CC(=O)O)C(=O)N[C@H](C)C(=O)N[C@@H](CC(=O)O)C(=O)NCC(=O)N[C@H](CO)C(=O)N[C@@H](C(C)CC(=O)O)C(=O)N[C@@H](CC(=O)c2ccccc2NC)C(=O)O[C@@H]1C (some centres unmarked) [Compound 1]
MRSA ATCC33591; 0.63 mg/kg
  Δ (thigh c.f.u. versus control): 0.97
MRSA ATCC33591; 1.25 mg/kg
  Δ (thigh c.f.u. versus control): 1.77
MRSA ATCC33591; 2.50 mg/kg
  Δ (thigh c.f.u. versus control): 3.15
MRSA ATCC33591; 5.00 mg/kg
  Δ (thigh c.f.u. versus control): 5.18
MRSA ATCC33591; doses of 1.25 and 2.50 mg/kg, mice with thigh infected with S. aureus
  antibacterial activity compared with daptomycin: significantly better antibacterial activity
MRSA ATCC33591; [4]
  Thigh colony-forming units (c.f.u): 7.93 ± 0.85 log(CFU/thigh)
MRSA ATCC33591; [5]
  Thigh colony-forming units (c.f.u): 7.13 ± 0.25 log(CFU/thigh)
MRSA ATCC33591; [6]
  Thigh colony-forming units (c.f.u): 5.75 ± 0.35 log(CFU/thigh)
MRSA ATCC33591; [7]
  Thigh colony-forming units (c.f.u): 3.72 ± 0.35 log(CFU/thigh)
MRSA ATCC43300; 20 mg/kg
  Δ (Log10 CFU/g of vegetation versus control): 1.78
MRSA ATCC43300; 20 mg/kg via tail vein
  Log10 (CFU/g) of vegetation: 7.53 ± 1.08 Log10 (CFU/g)
  Vegetation weight: 0.012 ± 0.002 g
MRSA ATCC43300; right-sided endocarditis rats
  infection of S. aureus compared with the control groups and daptomycin: significantly decrease the infection of S. aureus
[1]; [3]
  MIC: 0.5 µg/mL (≈ 0.306 µM)
[2]
  MIC: 0.5 µg/mL (≈ 0.306 µM)
  anti-Clostridium difficile activity compared with vancomycin and daptomycin: better activities than vancomycin and daptomycin
MRSA ATCC 33591
  MIC: 0.5 µg/mL (≈ 0.306 µM)
